Laboratory results published in article PMC11141866, “Pyrimidine depletion enhances targeted and immune therapy combinations in acute myeloid leukemia” (JCI Insight, 2024).
Several values for one entry are separate records, joined by “and”; a condition that tells them apart may be missing. Equal values may be shown once.

Assays:
[1] = tested on: MOLM-13 disseminated CDX AML model; assay: MOLM-13 CDX synergy with anti-CD38 immunotherapy; assay type: in vivo, NCG mice; settings: HOSU53 10 mpk qd; event 1 = death; 10 mg/kg
Description: Male 8- to 12-week-old male NCG mice were engrafted with 1 × 10^5 cells via tail vein i.v. injection. […] Figure 7, B and C, and Supplemental Figure 7, A and B, share 2 combined vehicle groups (n = 16 total).
Supplemental Figure S.7. […] Using the
daratumumab (Dara) (A) or biwk 2.5 mg/kg i.p isatuximab, Isa (B) anti-CD38 antibodies or a
Treatment was stopped at day
80. Adjusted FDR p-value *<0.05, nonsignificant (ns) ≥0.05.
Both Supplementary Figure S.7, A and B share the same vehicle and 4 mg/kg
(§1) (1 picture or pasted object on this page, not shown here)

[2] = tested on: U937; assay: MTS proliferation assay, U937; assay type: cell-based; settings: Homo sapiens, U-937; U937, 96-hour treatment; read-out: IC50 (MTS proliferation)
Description: (§2) A total of 10,000–20,000 cells from different AML lines or 50,000–75,000 cells of primary AML blasts were treated in a 96-well plate for 72 hours or 96 hours at 37°C, 5% CO2. CellTiter 96 Aqueous MTS reagent (Promega) was added to cells followed by a 3-hour incubation at 37°C, 5% CO2. The absorbance was measured at 490 nm using DTX 880 plate reader, and the IC50 was calculated using GraphPad Prism.

[3] = target: Dog DHODH (Canis lupus familiaris, UniProt A0A8I3MWX2); assay: Cell-free multi-species DHODH enzyme inhibition assay, dog; assay type: biochemical; settings: n=1
Dog DHODH, sequence (A0A8I3MWX2 1-406): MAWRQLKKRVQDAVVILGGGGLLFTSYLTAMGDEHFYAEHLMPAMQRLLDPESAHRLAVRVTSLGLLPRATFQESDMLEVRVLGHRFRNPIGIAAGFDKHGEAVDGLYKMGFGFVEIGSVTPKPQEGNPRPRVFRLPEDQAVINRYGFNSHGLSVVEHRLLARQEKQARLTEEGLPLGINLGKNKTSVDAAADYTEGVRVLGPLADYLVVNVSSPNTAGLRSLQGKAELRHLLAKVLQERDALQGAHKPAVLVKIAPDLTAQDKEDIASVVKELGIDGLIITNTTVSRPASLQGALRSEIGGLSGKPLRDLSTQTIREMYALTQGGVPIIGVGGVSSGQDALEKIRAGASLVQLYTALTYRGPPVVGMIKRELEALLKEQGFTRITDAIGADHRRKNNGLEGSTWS

[4] = tested on: primary AML patient samples; assay: Flow cytometry viability, primary AML long-term culture; assay type: cell-based, human
Description: (§3) Cells were thawed in 50% FBS RPMI and then cultured in StemSpan (StemCell Technologies) media supplemented with human FLT3L, SCF, GM-CSF, G-CSF, IL-3, IL-6, TPO, and EPO cytokines for 7 days (LTC).
(§4) After 72 hours or 7 days of treatment of DHODHi, cells were collected and washed with PBS, blocked with human Fc block (BioLegend), and stained with antibodies for 30 minutes on ice. Antibodies were washed off and cells resuspended in FACS buffer (2% FBS, 2 mM NaN3, Dulbecco’s PBS) for analysis using BD LSRFortessa or Cytek Aurora spectral flow cytometer. Live/dead exclusion was done using LIVE/DEAD Fixable Near-IR (Invitrogen). All antibodies were purchased from BioLegend except CD47, which was purchased from BD Biosciences: CD11b clone M1/70, CD38 clone HIT2, CD14 clone M5E2, CD47 clone B6H12, CD33 clone WM53, CD3 clone UCHT1, CD19 clone HIB19, and CD45 clone HI30.
Supplemental Figure S.2. […] A).
Flow cytometry analysis of viable primary AML patient samples (n=10) treated in vitro for seven days
(long term culture, LTC). […]

[5] = tested on: THP1; assay: MTS proliferation assay, THP1; assay type: cell-based; settings: Homo sapiens, THP-1; THP1, 96-hour treatment; read-out: IC50 (MTS proliferation)
Description: as §2

[6] = target: Mouse DHODH (Mus musculus, UniProt O35435); assay: Cell-free multi-species DHODH enzyme inhibition assay, mouse; assay type: biochemical; settings: n=1
Mouse DHODH, sequence (O35435 whole entry): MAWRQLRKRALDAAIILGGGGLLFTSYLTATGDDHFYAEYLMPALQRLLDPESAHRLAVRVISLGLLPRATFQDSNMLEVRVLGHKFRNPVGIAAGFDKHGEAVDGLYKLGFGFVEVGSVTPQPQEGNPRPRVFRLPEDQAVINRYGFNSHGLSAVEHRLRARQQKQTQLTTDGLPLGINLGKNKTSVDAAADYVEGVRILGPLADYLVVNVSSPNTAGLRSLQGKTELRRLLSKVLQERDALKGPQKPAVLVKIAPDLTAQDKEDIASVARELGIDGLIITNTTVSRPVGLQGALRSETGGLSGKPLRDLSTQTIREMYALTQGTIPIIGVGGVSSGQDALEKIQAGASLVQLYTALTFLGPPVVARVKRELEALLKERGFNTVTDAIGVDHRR

[7] = tested on: primary AML patient samples; assay: Flow cytometry CD47 surface expression, primary AML samples; assay type: cell-based, human; settings: 50nM
Description: as §3, §4
Supplemental Figure S.8. DHODHi modulates CD47 surface antigen expression. A) Representative flow cytometry overlay histogram plot for CD47 surface expression in MV4-11 cell line following a 72- […]
supplementation (experiment was done five independent times). B) Flow cytometry analysis of CD47 surface expression in primary AML patient samples (n=8-10) treated in vitro for seven days (long term culture, LTC). Data is shown as mean florescent intensity (MFI) of CD47 gated on live CD45+CD3-CD19- cells, error bars indicate mean with 95% confidence interval. C) Representative flow cytometry […]
modulation of CD47 post DHODHi treatment.
as §1

[8] = HOSU-53 plasma exposure in MOLM-13 tumor-bearing mice; assay type: in vivo, NCG mice; settings: 10 mpk PO, female mice, per mouse, 10 mg/kg
[9] = In vivo p.o. PK in rat; settings: po
Text: (§5) Supplement jciinsight-9-173646-s083.xlsx, sheet "Supplemental Table S.2." | column: HOSU-53

[10] = target: hERG (Homo sapiens, UniProt Q12809); assay: hERG (Q-Patch); assay type: cell-based
hERG, sequence (Q12809 whole entry): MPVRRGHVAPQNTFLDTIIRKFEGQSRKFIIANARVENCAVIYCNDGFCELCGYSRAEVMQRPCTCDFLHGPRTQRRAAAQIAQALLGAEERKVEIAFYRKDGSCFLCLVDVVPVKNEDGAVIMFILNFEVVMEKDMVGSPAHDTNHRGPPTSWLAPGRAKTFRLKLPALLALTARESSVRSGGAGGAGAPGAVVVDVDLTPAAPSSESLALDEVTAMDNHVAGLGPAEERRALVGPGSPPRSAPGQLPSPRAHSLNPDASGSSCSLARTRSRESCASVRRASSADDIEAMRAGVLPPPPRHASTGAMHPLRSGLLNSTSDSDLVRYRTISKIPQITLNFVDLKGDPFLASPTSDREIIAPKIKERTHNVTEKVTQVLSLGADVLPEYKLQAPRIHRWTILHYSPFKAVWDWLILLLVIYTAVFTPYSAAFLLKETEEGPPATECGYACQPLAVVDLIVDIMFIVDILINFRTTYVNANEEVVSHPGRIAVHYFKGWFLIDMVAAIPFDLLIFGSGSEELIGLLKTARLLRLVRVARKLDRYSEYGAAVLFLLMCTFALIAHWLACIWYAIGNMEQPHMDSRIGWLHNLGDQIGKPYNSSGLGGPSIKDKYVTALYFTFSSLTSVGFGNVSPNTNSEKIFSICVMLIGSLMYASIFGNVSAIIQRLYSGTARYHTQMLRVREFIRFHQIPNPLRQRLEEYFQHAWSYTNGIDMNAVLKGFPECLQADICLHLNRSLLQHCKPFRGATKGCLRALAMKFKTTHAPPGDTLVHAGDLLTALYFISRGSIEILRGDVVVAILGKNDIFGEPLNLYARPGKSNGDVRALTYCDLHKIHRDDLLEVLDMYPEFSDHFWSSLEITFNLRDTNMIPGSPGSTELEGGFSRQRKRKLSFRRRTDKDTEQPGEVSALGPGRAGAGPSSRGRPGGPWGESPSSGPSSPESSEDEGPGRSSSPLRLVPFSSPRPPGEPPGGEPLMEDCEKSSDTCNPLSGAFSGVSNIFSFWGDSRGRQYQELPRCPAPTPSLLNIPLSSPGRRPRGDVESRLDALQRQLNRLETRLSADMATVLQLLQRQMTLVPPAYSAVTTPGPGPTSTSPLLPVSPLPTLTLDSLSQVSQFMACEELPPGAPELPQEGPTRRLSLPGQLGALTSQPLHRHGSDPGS
Text: as §5

[11] = tested on: MOLM-13 disseminated CDX AML model; assay: MOLM-13 CDX synergy with FLT3 inhibitor gilteritinib (treatment from day 10); assay type: in vivo, NCG mice
Text: Male 8- to 12-week-old NCG mice were engrafted with 1 × 10^5 cells via tail vein i.v. injection. At 10 days after engraftment (day 1 of treatment), mice (n = 10/arm) were randomized to receive p.o. qd vehicle (50/50 mix of 20% HPβCD and 0.5% methylcellulose + 0.2% Tween 80), […] treatment, day 79. Treatment was predetermined to stop on day 79, after which any remaining mice would be monitored until ERC.

[12] = tested on: MOLM-13 AML cell line; assay: In vitro uridine rescue assay (MTS, Combenefit); assay type: cell-based, human; settings: MOLM-13, exogenous uridine, n=3
Description: In vitro analysis of the antagonistic activity of uridine to HOSU-53 efficacy on MOLM-13 cells was done using MTS proliferation assay with increasing concentrations of uridine, HOSU-53, or the combination. Three biological replicates were analyzed using Combenefit software with mathematical models for highest single agent ([48]).

CCCCOc1cccc(-c2ccc(-c3cc(C(=O)O)c4cc(F)ccc4n3)cc2)c1 [HOSU-53]
Day of Study (survival, per animal) [1]: 57 days and 64 days and 43 days and 63 days and 58 days and 62 days and 65 days | IC50 [2]: 33 nM | IC50 [3]: 1.25 nM | % Live (Near-IR negative) ([4]; Pt.12, 50nM, DMSO 56.46): 60.99% | % Live (Near-IR negative) ([4]; Pt.12, 100nM, DMSO 56.46): 59.36% | % Live (Near-IR negative) ([4]; Pt.13, 50nM, DMSO 72.92): 72.53% | % Live (Near-IR negative) ([4]; Pt.13, 100nM, DMSO 72.92): 66.43% | % Live (Near-IR negative) ([4]; Pt.14, 50nM, DMSO 68.39): 70.9% | % Live (Near-IR negative) ([4]; Pt.14, 100nM, DMSO 68.39): 55.21% | % Live (Near-IR negative) ([4]; Pt.15, 50nM, DMSO 61.7): 41.58% | % Live (Near-IR negative) ([4]; Pt.15, 100nM, DMSO 61.7): 27.92% | % Live (Near-IR negative) ([4]; Pt.16, 50nM, DMSO 45.99): 41.34% | % Live (Near-IR negative) ([4]; Pt.16, 100nM, DMSO 45.99): 32.16% | % Live (Near-IR negative) ([4]; Pt.17, 50nM, DMSO 29.84): 29.21% | % Live (Near-IR negative) ([4]; Pt.17, 100nM, DMSO 29.84): 25.94% | % Live (Near-IR negative) ([4]; Pt.18, 50nM, DMSO 29.72): 26.96% | % Live (Near-IR negative) ([4]; Pt.18, 100nM, DMSO 29.72): 23.34% | % Live (Near-IR negative) ([4]; Pt.19, 50nM, DMSO 75.66): 74.9% | % Live (Near-IR negative) ([4]; Pt.19, 100nM, DMSO 75.66): 58.74% | % Live (Near-IR negative) ([4]; Pt.20, 50nM, DMSO 67.67): 44.64% | % Live (Near-IR negative) ([4]; Pt.20, 100nM, DMSO 67.67): 42.59% | % Live (Near-IR negative) ([4]; Pt.2, 50nM, DMSO 78.52): 59.04% | % Live (Near-IR negative) ([4]; Pt.2, 100nM, DMSO 78.52): 32.63% | cell viability ([4]; primary AML samples, 7 days LTC): reduced cell viability | IC50 [5]: 50 nM | IC50 [6]: 2.1 nM | CD47 MFI ([7]; Pt.12, DMSO 1559.17): 2087.23 | CD47 MFI ([7]; Pt.13, DMSO 1665.27): 1161.83 | CD47 MFI ([7]; Pt.14, DMSO 585.79): 749.14 | CD47 MFI ([7]; Pt.15, DMSO 1002.16): 904.23 | CD47 MFI ([7]; Pt.16, DMSO 1349.33): 1418.1 | CD47 MFI ([7]; Pt.17, DMSO 334.61): 360.19 | CD47 MFI ([7]; Pt.18, DMSO 869.17): 1060.36 | CD47 MFI ([7]; Pt.19, DMSO 364.4): 532.16 | CD47 MFI ([7]; Pt.20, DMSO 398.54): 525.38 | CD47 MFI ([7]; Pt.2, DMSO 446.9): 436.9 | HOSU-53 AUCall ([8]; Day 1): 2462.63 µM·h and 1961.3 µM·h | HOSU-53 AUCall ([8]; Day 14): 3818.57 µM·h and 3432.74 µM·h | bioavailability ([9]; read-out: in vivo p.o. bioavailability (F)): 59% | half-life ([9]; read-out: in vivo p.o. t1/2 (converted)): 7.6 h | IC50 [10]: > 30000 nM | median survival ([11]; 10 mg/kg HOSU-53 daily p.o.): 48 days | Survival, day of study at event (per animal) ([11]; 4 mpk HOSU-53 poqd): 40 days and 35 days and 44 days and 43 days and 37 days and 39 days | Survival, day of study at event (per animal) ([11]; 10 mpk HOSU-53 poqd): 54 days and 44 days and 43 days and 59 days and 58 days and 52 days | uridine concentration at which metabolic resistance to HOSU-53 activity emerges [12]: above 25 μM
